# According to PMC5218480 (PLoS ONE, 2017):
# System: MV-4-11 cells
# Assay: Gene expression microarray analysis (Affymetrix PrimeView) and GSEA
# Type: cell-based, human
# Design: RFU PODN (11730768_x_at) / Fold change /veh PODN (11730768_x_at) / RFU LINC00158 (11744669_a_at) / Fold change /veh LINC00158 (11744669_a_at) / RFU DUSP10 (11751237_a_at) / Fold change /veh DUSP10 (11751237_a_at) / RFU ID3 (11757404_x_at) / Fold change /veh ID3 (11757404_x_at) / RFU PLEKHG5 (11737974_s_at) / Fold change /veh PLEKHG5 (11737974_s_at) / RFU LRRC4B (11730491_at) / Fold change /veh LRRC4B (11730491_at) / RFU GIMAP4 (11747438_a_at) / Fold change /veh GIMAP4 (11747438_a_at) / RFU KRT8 (11758183_x_at) / Fold change /veh KRT8 (11758183_x_at) / RFU CNN1 (11734310_a_at) / Fold change /veh CNN1 (11734310_a_at) / RFU VPS37D (11726825_at) / Fold change /veh VPS37D (11726825_at) / RFU C10orf10 (11716522_x_at) / Fold change /veh C10orf10 (11716522_x_at) / RFU KIR2DL2 /// KIR2DL4 /// KIR2DL5A /// KIR2DL5B /// KIR2DS1 /// KIR2DS2 /// KIR2DS3 /// KIR2DS4 /// KIR3DL3 /// KIR3DL3 /// KIR3DS1 (11738374_at) / Fold change /veh KIR2DL2 /// KIR2DL4 /// KIR2DL5A /// KIR2DL5B /// KIR2DS1 /// KIR2DS2 /// KIR2DS3 /// KIR2DS4 /// KIR3DL3 /// KIR3DL3 /// KIR3DS1 (11738374_at) / RFU C1QL1 (11718748_at) / Fold change /veh C1QL1 (11718748_at) / RFU TMPRSS4 (11747572_a_at) / Fold change /veh TMPRSS4 (11747572_a_at) / RFU HAMP (11756126_x_at) / Fold change /veh HAMP (11756126_x_at) / RFU RNFT2 (11725882_a_at) / Fold change /veh RNFT2 (11725882_a_at) / RFU NR4A2 (11747474_a_at) / Fold change /veh NR4A2 (11747474_a_at) / RFU ABCC12 (11746883_a_at) / Fold change /veh ABCC12 (11746883_a_at) / RFU TMEM136 (11760407_x_at) / Fold change /veh TMEM136 (11760407_x_at) / RFU CLDN22 /// WWC2 (11732394_at) / Fold change /veh CLDN22 /// WWC2 (11732394_at) / RFU HLA-DPB1 (11760878_x_at) / Fold change /veh HLA-DPB1 (11760878_x_at) / RFU SPINT1 (11716480_a_at) / Fold change /veh SPINT1 (11716480_a_at) / RFU GAP43 (11754022_s_at) / Fold change /veh GAP43 (11754022_s_at) / RFU A4GNT (11735810_at) / Fold change /veh A4GNT (11735810_at) / RFU PRB3 (11715151_x_at) / Fold change /veh PRB3 (11715151_x_at) / RFU TUBB4B (11761932_at) / Fold change /veh TUBB4B (11761932_at) / RFU CAPN14 (11732068_a_at) / Fold change /veh CAPN14 (11732068_a_at) / RFU TMCC2 (11721928_a_at) / Fold change /veh TMCC2 (11721928_a_at) / RFU IRGQ (11745062_a_at) / Fold change /veh IRGQ (11745062_a_at) / RFU FAM174B (11720279_a_at) / Fold change /veh FAM174B (11720279_a_at) / RFU TMPRSS4 (11748680_a_at) / Fold change /veh TMPRSS4 (11748680_a_at) / RFU FAM212B (11763350_a_at) / Fold change /veh FAM212B (11763350_a_at) / RFU PLEKHG5 (11743358_a_at) / Fold change /veh PLEKHG5 (11743358_a_at) / RFU ZSCAN30 (11745921_a_at) / Fold change /veh ZSCAN30 (11745921_a_at) / RFU CMKLR1 (11741424_a_at) / Fold change /veh CMKLR1 (11741424_a_at) / RFU LOC101060620 /// MAPK8IP1 (11723275_at) / Fold change /veh LOC101060620 /// MAPK8IP1 (11723275_at) / RFU SPTSSB (11747773_x_at) / Fold change /veh SPTSSB (11747773_x_at) / RFU PRSS12 (11739890_at) / Fold change /veh PRSS12 (11739890_at) / RFU BIN1 (11741810_x_at) / Fold change /veh BIN1 (11741810_x_at) / RFU WNT11 (11732464_a_at) / Fold change /veh WNT11 (11732464_a_at) / RFU C10orf10 (11716521_a_at) / Fold change /veh C10orf10 (11716521_a_at) / RFU C5orf56 (11738089_at) / Fold change /veh C5orf56 (11738089_at) / RFU CYB561 (11721691_x_at) / Fold change /veh CYB561 (11721691_x_at) / RFU ANKRD19P (11752326_a_at) / Fold change /veh ANKRD19P (11752326_a_at) / RFU OR2T12 /// OR2T33 /// OR2T8 (11738714_s_at) / Fold change /veh OR2T12 /// OR2T33 /// OR2T8 (11738714_s_at) / RFU VCAN (11748164_a_at) / Fold change /veh VCAN (11748164_a_at) / RFU JSRP1 (11732532_at) / Fold change /veh JSRP1 (11732532_at) / RFU KRTAP10-11 (11738290_x_at) / Fold change /veh KRTAP10-11 (11738290_x_at) / RFU MYO3A (11730013_a_at) / Fold change /veh MYO3A (11730013_a_at) / RFU EBF3 (11725865_a_at) / Fold change /veh EBF3 (11725865_a_at) / RFU CAMK2N1 (11719241_x_at) / Fold change /veh CAMK2N1 (11719241_x_at) / RFU C5orf56 (11738088_a_at) / Fold change /veh C5orf56 (11738088_a_at) / RFU OLFML3 (11715873_a_at) / Fold change /veh OLFML3 (11715873_a_at) / RFU LOC100653217 /// NTM (11731650_a_at) / Fold change /veh LOC100653217 /// NTM (11731650_a_at) / RFU MAPK11 (11762145_a_at) / Fold change /veh MAPK11 (11762145_a_at) / RFU FIZ1 (11724087_x_at) / Fold change /veh FIZ1 (11724087_x_at) / RFU OASL (11726364_x_at) / Fold change /veh OASL (11726364_x_at) / RFU SOX15 (11748057_x_at) / Fold change /veh SOX15 (11748057_x_at) / RFU CD79A (11719716_a_at) / Fold change /veh CD79A (11719716_a_at) / RFU HIST1H1D (11736915_at) / Fold change /veh HIST1H1D (11736915_at) / RFU CASKIN2 (11723855_a_at) / Fold change /veh CASKIN2 (11723855_a_at) / RFU LOC730098 (11760151_x_at) / Fold change /veh LOC730098 (11760151_x_at) / RFU OR4N2 (11742367_at) / Fold change /veh OR4N2 (11742367_at) / RFU PRRT2 (11749266_a_at) / Fold change /veh PRRT2 (11749266_a_at) / RFU SNX32 (11753110_a_at) / Fold change /veh SNX32 (11753110_a_at) / RFU CDHR5 (11726645_a_at) / Fold change /veh CDHR5 (11726645_a_at) / RFU RCAN1 (11760418_a_at) / Fold change /veh RCAN1 (11760418_a_at) / RFU FAM167A (11723789_a_at) / Fold change /veh FAM167A (11723789_a_at) / RFU FAM26E (11764081_at) / Fold change /veh FAM26E (11764081_at) / RFU ISYNA1 (11749810_s_at) / Fold change /veh ISYNA1 (11749810_s_at) / RFU ACY1 (11761880_at) / Fold change /veh ACY1 (11761880_at) / RFU 11764098_at / Fold change /veh 11764098_at / RFU SAMD14 (11745864_x_at) / Fold change /veh SAMD14 (11745864_x_at) / RFU NPB (11741838_a_at) / Fold change /veh NPB (11741838_a_at) / RFU TMPRSS6 (11731388_a_at) / Fold change /veh TMPRSS6 (11731388_a_at) / RFU KRTAP10-2 (11738614_at) / Fold change /veh KRTAP10-2 (11738614_at) / RFU ARHGAP8 /// PRR5-ARHGAP8 (11727945_x_at) / Fold change /veh ARHGAP8 /// PRR5-ARHGAP8 (11727945_x_at) / RFU KRTAP5-7 /// NADSYN1 (11734609_at) / Fold change /veh KRTAP5-7 /// NADSYN1 (11734609_at) / RFU RASL12 (11751679_a_at) / Fold change /veh RASL12 (11751679_a_at) / RFU CDKN2B (11736163_a_at) / Fold change /veh CDKN2B (11736163_a_at) / RFU PRF1 (11729649_at) / Fold change /veh PRF1 (11729649_at) / RFU, ZNF638 /// ZNF638-IT1 / Fold change vs veh, ZNF638 /// ZNF638-IT1 / RFU, PANK3 / Fold change vs veh, PANK3 / RFU, SH3YL1 / Fold change vs veh, SH3YL1 / RFU, ZEB2 / Fold change vs veh, ZEB2 / RFU, NRIP1 / Fold change vs veh, NRIP1 / RFU, PTTG1IP / Fold change vs veh, PTTG1IP / RFU, CAPN2 / Fold change vs veh, CAPN2 / RFU, MED14 / Fold change vs veh, MED14 / RFU, SNORA58 / Fold change vs veh, SNORA58 / RFU, C1orf63 / Fold change vs veh, C1orf63 / RFU, LRRFIP1 / Fold change vs veh, LRRFIP1 / RFU, NDUFAF7 / Fold change vs veh, NDUFAF7 / RFU, SLC12A2 / Fold change vs veh, SLC12A2 / RFU, IBTK / Fold change vs veh, IBTK / RFU, ESF1 / Fold change vs veh, ESF1 / Fold change vs veh, TMEM50B / RFU, TAOK1 / Fold change vs veh, TAOK1 / RFU, ACBD3 / Fold change vs veh, ACBD3 / RFU, TMA16 / Fold change vs veh, TMA16 / RFU, RWDD3 / Fold change vs veh, RWDD3 / RFU, BCAT1 / Fold change vs veh, BCAT1 / RFU, EDEM3 / Fold change vs veh, EDEM3 / RFU, TMEM33 / Fold change vs veh, TMEM33 / RFU, WDR75 / Fold change vs veh, WDR75 / RFU, AHCTF1 / Fold change vs veh, AHCTF1 / RFU, TFRC / Fold change vs veh, TFRC / RFU, ZDHHC17 / Fold change vs veh, ZDHHC17 / RFU, NOM1 / Fold change vs veh, NOM1 / RFU, ARL8B / Fold change vs veh, ARL8B / RFU, ZBTB11 / Fold change vs veh, ZBTB11 / RFU, TAMM41 / Fold change vs veh, TAMM41 / RFU, KIAA1704 /// LOC100996395 / Fold change vs veh, KIAA1704 /// LOC100996395 / RFU, ING1 / Fold change vs veh, ING1 / RFU, TRMT61B / Fold change vs veh, TRMT61B / RFU, FUBP3 / Fold change vs veh, FUBP3 / RFU, TP53 / Fold change vs veh, TP53 / RFU, TNKS2 / Fold change vs veh, TNKS2 / RFU, ZFP14 / Fold change vs veh, ZFP14 / RFU, ACTR2 / Fold change vs veh, ACTR2 / RFU, PPP3R1 / Fold change vs veh, PPP3R1 / RFU, PIK3R1 / Fold change vs veh, PIK3R1 / RFU, HNRNPA1 / Fold change vs veh, HNRNPA1 / RFU, RNF170 / Fold change vs veh, RNF170 / RFU, ZNF28 / Fold change vs veh, ZNF28 / RFU, RNGTT / Fold change vs veh, RNGTT / RFU, OGT / Fold change vs veh, OGT / RFU, BRD1 / Fold change vs veh, BRD1 / RFU, MARS / Fold change vs veh, MARS / RFU, ZNF655 / Fold change vs veh, ZNF655 / RFU, FAHD1 / Fold change vs veh, FAHD1 / RFU, BDP1 / Fold change vs veh, BDP1 / RFU, LRRCC1 / Fold change vs veh, LRRCC1 / RFU, ARID1A / Fold change vs veh, ARID1A / RFU, ZNF146 / Fold change vs veh, ZNF146 / RFU, ZNF330 / Fold change vs veh, ZNF330 / RFU, GPN3 / Fold change vs veh, GPN3 / RFU, C9orf123 / Fold change vs veh, C9orf123 / RFU, N4BP2L2 / Fold change vs veh, N4BP2L2 / RFU, ARFIP1 / Fold change vs veh, ARFIP1 / RFU, FAM179B / Fold change vs veh, FAM179B / RFU, BCL10 / Fold change vs veh, BCL10 / RFU, UHRF1BP1L / Fold change vs veh, UHRF1BP1L / RFU, BET1 / Fold change vs veh, BET1 / RFU, CNOT2 / Fold change vs veh, CNOT2 / RFU, ZNF268 / Fold change vs veh, ZNF268 / Fold change vs veh, ZNF507 / RFU, DGCR2 / Fold change vs veh, DGCR2 / RFU, WDSUB1 / Fold change vs veh, WDSUB1 / Fold change vs veh, HSP90B1 /// MIR3652 / RFU, ADSS / Fold change vs veh, ADSS / RFU, GK / Fold change vs veh, GK / RFU, ZNF148 / Fold change vs veh, ZNF148 / RFU, TAF9 / Fold change vs veh, TAF9 / RFU, SLC1A5 / Fold change vs veh, SLC1A5 / RFU, SLMO2 / Fold change vs veh, SLMO2 / RFU, ABCC4 / Fold change vs veh, ABCC4 / RFU, LOC101060439 /// RAP1B / Fold change vs veh, LOC101060439 /// RAP1B / RFU, RFX7 / Fold change vs veh, RFX7 / RFU, GTPBP10 / Fold change vs veh, GTPBP10 / RFU, CNEP1R1 / Fold change vs veh, CNEP1R1 / RFU, BIVM-ERCC5 /// ERCC5 / Fold change vs veh, BIVM-ERCC5 /// ERCC5 / RFU, ILF3 / Fold change vs veh, ILF3 / RFU 11762660_at / Fold change /veh 11762660_at / RFU VCAN (11757783_s_at) / Fold change /veh VCAN (11757783_s_at) / RFU DDX43 (11728927_at) / Fold change /veh DDX43 (11728927_at) / RFU KRT8 (11758188_x_at) / Fold change /veh KRT8 (11758188_x_at) / RFU NKD1 (11759106_at) / Fold change /veh NKD1 (11759106_at) / RFU SRD5A1 (11742802_a_at) / Fold change /veh SRD5A1 (11742802_a_at) / RFU TPSAB1 /// TPSB2 (11721975_s_at) / Fold change /veh TPSAB1 /// TPSB2 (11721975_s_at) / RFU GSTM3 (11746129_a_at) / Fold change /veh GSTM3 (11746129_a_at) / RFU IL23R (11737362_x_at) / Fold change /veh IL23R (11737362_x_at) / RFU TMEM51 (11727254_a_at) / Fold change /veh TMEM51 (11727254_a_at) / RFU PIWIL2 (11732686_x_at) / Fold change /veh PIWIL2 (11732686_x_at) / RFU ORM1 (11744905_x_at) / Fold change /veh ORM1 (11744905_x_at) / RFU CCDC152 (11743942_at) / Fold change /veh CCDC152 (11743942_at) / RFU ECM1 (11717891_a_at) / Fold change /veh ECM1 (11717891_a_at) / RFU IL23R (11748794_a_at) / Fold change /veh IL23R (11748794_a_at) / RFU TNFAIP8L3 (11732012_x_at) / Fold change /veh TNFAIP8L3 (11732012_x_at) / RFU MBOAT4 (11741988_at) / Fold change /veh MBOAT4 (11741988_at) / RFU 11764193_at / Fold change /veh 11764193_at / RFU TMEM53 (11763286_at) / Fold change /veh TMEM53 (11763286_at) / RFU MAGEB2 (11727129_at) / Fold change /veh MAGEB2 (11727129_at) / RFU TMEM200A (11744735_a_at) / Fold change /veh TMEM200A (11744735_a_at) / RFU CCDC152 (11751479_a_at) / Fold change /veh CCDC152 (11751479_a_at) / RFU FAM211A (11726209_a_at) / Fold change /veh FAM211A (11726209_a_at) / RFU RGS16 (11746705_a_at) / Fold change /veh RGS16 (11746705_a_at) / RFU VCAN (11755009_s_at) / Fold change /veh VCAN (11755009_s_at) / RFU RHOB (11743442_s_at) / Fold change /veh RHOB (11743442_s_at) / RFU RGS16 (11720943_a_at) / Fold change /veh RGS16 (11720943_a_at) / RFU RGS16 (11720944_at) / Fold change /veh RGS16 (11720944_at) / RFU, VPS4B / Fold change vs veh, VPS4B / RFU, CREB1 / Fold change vs veh, CREB1 / RFU, DNAJC13 / Fold change vs veh, DNAJC13 / RFU, GNAQ / Fold change vs veh, GNAQ / RFU, CDK5R1 / Fold change vs veh, CDK5R1 / RFU, ZRANB3 / Fold change vs veh, ZRANB3 / RFU, CUL4A / Fold change vs veh, CUL4A / RFU, CCNY / Fold change vs veh, CCNY / RFU, UFL1 / Fold change vs veh, UFL1 / RFU, COG3 / Fold change vs veh, COG3 / RFU, DIAPH2 / Fold change vs veh, DIAPH2 / RFU, SKA2 / Fold change vs veh, SKA2 / RFU, AFF3 / Fold change vs veh, AFF3 / RFU, LMF1 / Fold change vs veh, LMF1 / RFU, IPO11 / Fold change vs veh, IPO11 / RFU, DFFB / Fold change vs veh, DFFB / RFU, FOXP1 / Fold change vs veh, FOXP1 / RFU, CARD8 / Fold change vs veh, CARD8 / RFU, STRN3 / Fold change vs veh, STRN3 / RFU, ADK / Fold change vs veh, ADK / RFU, RASSF2 / Fold change vs veh, RASSF2 / RFU, WIPF1 / Fold change vs veh, WIPF1 / RFU, LARP1B / Fold change vs veh, LARP1B / RFU, RASA1 / Fold change vs veh, RASA1 / RFU, RB1 / Fold change vs veh, RB1 / RFU, PPFIA1 / Fold change vs veh, PPFIA1 / RFU, MAT2A / Fold change vs veh, MAT2A / RFU, CCT5 / Fold change vs veh, CCT5 / RFU, WDR92 / Fold change vs veh, WDR92 / RFU, CUX1 / Fold change vs veh, CUX1 / RFU, TTC7A / Fold change vs veh, TTC7A / RFU, TMEM135 / Fold change vs veh, TMEM135 / RFU, DEPTOR / Fold change vs veh, DEPTOR / RFU, CPM / Fold change vs veh, CPM / RFU, DNAJB6 / Fold change vs veh, DNAJB6 / RFU, CACNA2D3 / Fold change vs veh, CACNA2D3 / RFU, DTX4 / Fold change vs veh, DTX4 / RFU, TFCP2 / Fold change vs veh, TFCP2 / RFU, GMCL1 /// GMCL1P1 / Fold change vs veh, GMCL1 /// GMCL1P1 / RFU, AEBP2 / Fold change vs veh, AEBP2 / RFU, SNHG1 /// SNORD22 /// SNORD25 /// SNORD26 /// SNORD27 /// SNORD28 /// SNORD29 /// SNORD31 / Fold change vs veh, SNHG1 /// SNORD22 /// SNORD25 /// SNORD26 /// SNORD27 /// SNORD28 /// SNORD29 /// SNORD31 / Fold change (Aza/veh), C12orf56 (ProbeSet 11735607_a_at) / Fold change (ACY-1035/veh), C12orf56 (ProbeSet 11735607_a_at) / Fold change (Aza/veh), FGFR1OP (ProbeSet 11751329_s_at) / Fold change (ACY-1035/veh), FGFR1OP (ProbeSet 11751329_s_at) / Fold change (Aza/veh), VPS36 (ProbeSet 11739960_a_at) / Fold change (ACY-1035/veh), VPS36 (ProbeSet 11739960_a_at) / RFU SYPL1 (11715823_x_at) / Fold change /veh SYPL1 (11715823_x_at) / RFU IGFBP7 (11715501_s_at) / Fold change /veh IGFBP7 (11715501_s_at) / RFU REEP3 (11722064_at) / Fold change /veh REEP3 (11722064_at) / RFU IGLL1 (11728026_x_at) / Fold change /veh IGLL1 (11728026_x_at): dose or concentration left out as unconfirmed
# Conditions: MV-4-11 cells, 48 hours
smiles,measurement,value
Nc1ncn([C@@H]2O[C@H](CO)[C@@H](O)[C@H]2O)c(=O)n1 [azacitidine],Fold change /veh FAM26E (11764081_at),0.84
